Laboratory results taken from patent US20170007633A1, “TREATMENT OF NEURODEGENERATIVE AND NEURODEVELOPMENTAL DISEASES BY INHIBITION OF THE a2-Na/K ATPase/a-ADDUCIN COMPLEX” (PRESIDENT AND FELLOWS OF HARVARD COLLEGE, priority 2014, published 2017).
Entries after “also recorded” stand apart in the source; their conditions may differ.

Experiments:
[1] = system: motor neurons co-cultured with SOD1^G93A astrocytes (Na/K ATPase); test: co-culture of SOD1^G93A or control astrocytes with primary motor neurons, pharmacological inhibition of Na/K ATPase; details: for impairment of dendrite morphology in motor neurons induced by SOD1^G93A astrocytes / motor neuron cell death induced by SOD1^G93A astrocytes: final concentration of 1 μm; for motor neuron cell death induced by SOD1^G93A astrocytes: vehicle 56%, 7 days of co-culture
Method: Monolayer astrocytes culture from P2 SOD1^G93A and non-transgenic littermate mice were prepared as described in Di Giorgio et al., Nat. Neurosci. 10:608-614 (2007) and Nagai et al., Nat. Neurosci. 10:615-622 (2007), each of which is incorporated by reference. Astrocytes were plated in DMEM (GIBCO) supplemented with 10% FBS containing 100 U/ml penicillin and […] for two weeks or until confluent. Once confluent, cells were replated onto glass cover slips precoated with poly-D-lysine at a density of 40,000 cells/well in a 24-well dish. For RNAi experiment astrocyte cultures were transfected with RNAi or control U6 plasmid using Lipofectamine 2000 (Invitrogen) according to the guidelines of the manufacturer four days prior to co-culturing with motor neurons.
Spinal motor neuronal cultures from E12.5 wild-type rodents were performed as described in Gingras et al., J. Neurosci. Methods 163:11-118 (2007), which is hereby incorporated by reference. Cultures were plated astrocyte monolayers at 12,000 cells/well in Neurobasal-A medium (GIBCO) supplemented with 2% B-27 serum free supplement and 0.5 mM glutamine; DMEM/F12 (3:1, v/v ratio) with a cocktail of trophic factors composed of 0.5 ng/ml glia-derived neurotrophic factor, 1 ng/ml brain-derived neurotrophic factor and 10 ng/ml ciliary neurotrophic factor (trophic factor cocktail, R&D Systems).
Motor neurons were fixed after 7 days of co-cultures with astrocytes and immunostained with Islet1, MAP2 and Hoechst 33258 and subjected to cell survival. Approximately 150 cells were counted per cover slip. For pharmacological inhibition of Na/K ATPase in co-cultures. […] For motor neuron morphology images were taken using a NIKON eclipse TE2000 epifluorescence microscope using a digital CCD camera (DIAGNOSTIC instruments) and imported into the SPOT imaging software. Approximately 40 cells were analyzed per cover slip.

SOD1^G93A mice = format: in vivo
Method: Transgenic mice overexpressing mutant G93A human superoxide dismutase 1 (Jackson Laboratory stock#002726). α2-Na/K ATPase null heterozygous (provided by Dr. Jerry B. Lingrel) and C57BL6 (Charles River) were used. All analysis was done with littermate mice derived from SOD1^G93A heterozygous mating with non-transgenic wild type and heterozygous α2-Na/K ATPase mice. All animal experiments were conducted under the institutional guidelines and were approved by the Institutional Animal Care and Use Committee (IACUC).
All morphological studies were performed as described in Chandra et al., Cell 123:383-396 (2005), which is incorporated by reference. Briefly, mice were deeply anesthetized and perfused with 4% paraformaldehyde in phosphate buffer. Spinal cords were post-fixed in the same fixative for 4 hours and processed for cryoprotective embedding. Immunohistochemistry analyses were carried out on 30 um cryosections from spinal cords with the indicated antibodies. […] For lentiviral mediated RNAi a minimum of 20 sections were quantified for surviving motor neurons in the injected and non-injected ventral horns from Nissl stained and immunofluorescence labeled sections.

Substance | non-cell autonomous cell death and dendrite abnormalities induced by SOD1^G93A astrocytes (FIG. 5) [1] | survival or morphology of motor neurons co-cultured with control (non-transgenic) astrocytes [1] | impairment of dendrite morphology in motor neurons induced by SOD1^G93A astrocytes [1] | motor neuron cell death induced by SOD1^G93A astrocytes [1] [%] | motor neurons per ventral horn section (SOD1^G93A mice; 1 mg/kg intraperitoneal on a 48-hour cycle from 80 days, toward end stage (130±5 days), vehicle 4.66±0.40) | motor neuron survival / degeneration in SOD1^G93A mice (SOD1^G93A mice; intraperitoneal digoxin compared to vehicle)
digoxin | neuroprotective | did not alter survival or morphology of motor neurons; also recorded: did not alter motor neuron survival or morphology | prevented impairment of dendrite morphology | 19 | 7.20±0.21 | protected motor neurons from degeneration; also recorded: significantly increases the number of motor neurons
ouabain | neuroprotective | did not alter survival or morphology of motor neurons; also recorded: did not alter motor neuron survival or morphology | prevented impairment of dendrite morphology | 22 | – | –
